Key:
Carbonic anhydrase 9 = Carbonic anhydrase 9 (Homo sapiens, UniProt Q16790)
Carbonic anhydrase 1 = Carbonic anhydrase 1 (Homo sapiens, UniProt P00915)
Carbonic anhydrase 2 = Carbonic anhydrase 2 (Homo sapiens, UniProt P00918)
Carbonic anhydrase 7 = Carbonic anhydrase 7 (Homo sapiens, UniProt P43166)
Carbonic anhydrase 14 = Carbonic anhydrase 14 (Homo sapiens, UniProt Q9ULX7)
Carbonic anhydrase 14, sequence (Q9ULX7 whole entry): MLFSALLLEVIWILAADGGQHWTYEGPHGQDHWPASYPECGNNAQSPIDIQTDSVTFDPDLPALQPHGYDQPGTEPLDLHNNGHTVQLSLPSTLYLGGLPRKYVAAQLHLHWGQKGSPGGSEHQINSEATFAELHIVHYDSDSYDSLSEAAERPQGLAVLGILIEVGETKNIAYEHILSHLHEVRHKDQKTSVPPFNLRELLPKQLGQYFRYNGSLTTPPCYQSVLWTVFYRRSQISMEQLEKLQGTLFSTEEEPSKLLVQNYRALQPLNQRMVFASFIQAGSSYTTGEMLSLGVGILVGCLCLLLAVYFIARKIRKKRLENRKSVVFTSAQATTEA

Carbonic anhydrase 1, sequence (P00915 whole entry): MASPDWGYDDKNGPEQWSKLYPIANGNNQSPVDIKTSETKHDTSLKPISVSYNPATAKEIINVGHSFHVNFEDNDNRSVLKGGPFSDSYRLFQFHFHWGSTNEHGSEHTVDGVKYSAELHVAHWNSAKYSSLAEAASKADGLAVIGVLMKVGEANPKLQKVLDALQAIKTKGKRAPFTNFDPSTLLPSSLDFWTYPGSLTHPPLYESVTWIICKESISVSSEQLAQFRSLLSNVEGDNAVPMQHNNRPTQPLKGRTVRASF
Carbonic anhydrase 7, sequence (P43166 whole entry): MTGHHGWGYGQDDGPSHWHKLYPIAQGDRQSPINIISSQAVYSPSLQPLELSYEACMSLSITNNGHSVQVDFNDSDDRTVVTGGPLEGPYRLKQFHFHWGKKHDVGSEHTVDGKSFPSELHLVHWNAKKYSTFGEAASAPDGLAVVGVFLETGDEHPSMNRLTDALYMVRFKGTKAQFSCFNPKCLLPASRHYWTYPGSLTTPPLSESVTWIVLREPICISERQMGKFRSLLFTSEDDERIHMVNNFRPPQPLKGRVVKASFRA

Compound | Ki (Carbonic anhydrase 9) [nM] | further results
COc1ccc(CCNC(=O)c2ccc(S(N)(=O)=O)cc2)cc1OC | 3.8 | 
COc1cc2c(cc1OC)C(c1ccc(S(N)(=O)=O)cc1)=NCC2 | 210 | 
COc1cc2c(cc1OC)C(c1ccc(S(N)(=O)=O)cc1)NCC2 (configuration not stated) | 130 | 
COc1cc2c(cc1OC)C(c1ccc(S(N)(=O)=O)cc1)N(S(N)(=O)=O)CC2 (configuration not stated) | 76 | 
COc1cccc(CCNC(=O)c2ccc(S(N)(=O)=O)cc2)c1 | 6.5 | 
CCOc1cccc(CCNC(=O)c2ccc(S(N)(=O)=O)cc2)c1 | 8.1 | 
CCCOc1cccc(CCNC(=O)c2ccc(S(N)(=O)=O)cc2)c1 | 8.3 | 
NS(=O)(=O)c1ccc(C(=O)NCCc2cccc(O)c2)cc1 | 41.7 | 
COc1ccc2c(c1)CCN=C2c1ccc(S(N)(=O)=O)cc1 | 18.3 | 
CCOc1ccc2c(c1)CCN=C2c1ccc(S(N)(=O)=O)cc1 | 7.2 | Ki (Carbonic anhydrase 1): 1050 nM; Ki (Carbonic anhydrase 2): 87.5 nM; Ki (Carbonic anhydrase 7): 6.5 nM; Ki (Carbonic anhydrase 14): 17.9 nM
CCCOc1ccc2c(c1)CCN=C2c1ccc(S(N)(=O)=O)cc1 | 16.1 | Ki (Carbonic anhydrase 1): 83.1 nM; Ki (Carbonic anhydrase 2): 8.8 nM; Ki (Carbonic anhydrase 7): 8 nM; Ki (Carbonic anhydrase 14): 8.7 nM
NS(=O)(=O)c1ccc(C2=NCCc3cc(O)ccc32)cc1 | 51.5 | 
NS(=O)(=O)c1ccc(C2NCCc3cc(O)ccc32)cc1 (configuration not stated) | 68.3 | 
COc1ccc2c(c1)CCN(S(N)(=O)=O)C2c1ccc(S(N)(=O)=O)cc1 (configuration not stated) | 6.5 | 
CCOc1ccc2c(c1)CCN(S(N)(=O)=O)C2c1ccc(S(N)(=O)=O)cc1 (configuration not stated) | 52.1 | 
NS(=O)(=O)c1ccc(C2c3ccc(O)cc3CCN2S(N)(=O)=O)cc1 (configuration not stated) | 7.9 | 
COc1ccc2c(c1)CCNC2c1ccc(S(N)(=O)=O)cc1 (racemic) | 15.4 | 
CCOc1ccc2c(c1)CCNC2c1ccc(S(N)(=O)=O)cc1 (racemic) | 9.2 | 
CCCOc1ccc2c(c1)CCNC2c1ccc(S(N)(=O)=O)cc1 (racemic) | 9.2 | 
